Experimental data as given in patent US12129265B2, “Therapeutic agents and uses thereof” (Ankh Life Sciences Limited, priority 2020, dated 2024).
Where two headings read alike, the source gives them in different places.

Columns and labels:
Assay in all cases: CellTiter-Glo in vitro cell proliferation assay, Example 8
BxPC-3 cells = assay type: cell-based, Human; conditions: BxPC-3, Pancreatic, read-out: Mean IC50
Method in brief: (§1)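 In this 3-day viability format, cells were drugged 24 h after plating across 0.0075–100 μM. CellTiter-Glo, mixed 1:1 with sterile water, was applied at the end and luminescence read after 60 min at room temperature.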

ASPC-1 cells = assay type: cell-based, Human; conditions: ASPC-1, Pancreatic, read-out: Mean IC50
Method in brief: as §1

KMS-11 cells = assay type: cell-based, Human; conditions: KMS-11, Human Myeloma, 72 hours; read-out: Mean IC50
Method in brief: as §1

KMS-27 cells = assay type: cell-based, Human; conditions: KMS-27, Human Myeloma, 72 hours; read-out: Mean IC50
Method in brief: as §1

H1650 (EGFR mut) cells = assay type: cell-based, Human; conditions: read-out: Mean IC50
Method in brief: as §1

L363 cells = assay type: cell-based, Human; conditions: read-out: Mean IC50
Method in brief: as §1

MIA PaCa-2 cells = assay type: cell-based, Human; conditions: MIA PaCa-2, Pancreatic, read-out: Mean IC50
Method in brief: as §1

FaDu cells = assay type: cell-based, Human; conditions: read-out: Mean IC50
Method in brief: as §1

KMM-1 cells = assay type: cell-based, Human; conditions: read-out: Mean IC50
Method in brief: as §1

A498 cells = assay type: cell-based, Human; conditions: read-out: Mean IC50
Method in brief: as §1

MM.1s cells = assay type: cell-based, Human; conditions: MM1.S; MM.IS, Human Myeloma, 72 hours; read-out: Mean IC50
Method in brief: as §1

KHM-1B cells = assay type: cell-based, Human; conditions: Human Myeloma, 72 hours, read-out: Mean IC50
Method in brief: as §1

H1975 (EGFR mut) cells = assay type: cell-based, Human; conditions: read-out: Mean IC50
Method in brief: as §1

H929 cells = assay type: cell-based, Human; conditions: NCI-H929; H929, Human Myeloma, 72 hours; read-out: Mean IC50
Method in brief: as §1

MOLP-8 cells = assay type: cell-based, Human; conditions: read-out: Mean IC50
Method in brief: as §1

AN3CA cells = assay type: cell-based, Human; conditions: Endometrial, read-out: Mean IC50
Method in brief: as §1

HCC70 cells = assay type: cell-based, Human; conditions: read-out: Mean IC50
Method in brief: as §1

KMS-34 cells = assay type: cell-based, Human; conditions: read-out: Mean IC50
Method in brief: as §1

JIM1 cells = assay type: cell-based, Human; conditions: read-out: Mean IC50
Method in brief: as §1

SiHA cells = assay type: cell-based, Human; conditions: read-out: Mean IC50
Method in brief: as §1

HEC-1a cells = assay type: cell-based, Human; conditions: Endometrial, read-out: Mean IC50
Method in brief: as §1

DOHH-2 cells = assay type: cell-based, Human; conditions: read-out: Mean IC50
Method in brief: as §1

A2780 cells = assay type: cell-based, Human; conditions: A2780, Ovarian, read-out: Mean IC50
Method in brief: as §1

A2780CP cells = assay type: cell-based, Human; conditions: Ovarian, read-out: Mean IC50
Method in brief: as §1

OCI-LY3 cells = assay type: cell-based, Human; conditions: read-out: Mean IC50
Method in brief: as §1

MDA-MB-468 cells = assay type: cell-based, Human; conditions: read-out: Mean IC50
Method in brief: as §1

MDA-MB-231 cells = assay type: cell-based, Human; conditions: read-out: Mean IC50
Method in brief: as §1

Jeko-1 Parental cells = assay type: cell-based; conditions: Homo sapiens, Mantle Cell Lymphoma, 72 hours
Procedure: (§2) In this Example, in vitro cell proliferation assays were performed using: (1) Human Myeloma tumor cell lines; (2) Human Lymphoma tumor cell lines; (3) Solid Human tumor cell lines; and (4) Parental, Lenalidomide resistant and Bortezomib resistant Jeko-1 Mantle cell Lymphoma tumor cell lines. The compounds tested were three diharmaline compounds, namely the 518B562 (or simply 562), 560, and 561 compounds. In addition, a monoharmaline product designated as 518F014 was also tested. This monoharmaline product had the following structure:
(§3) Each proliferation assay was carried out as follows. The test cells were plated in growth media using a 384-well microtiter plate at 50 μL volume. The cells were incubated for 24 hours at 37° C. in a humidified incubator. After 24 hours of incubation, the test compounds were added to the test wells in DSMO solvent, at concentrations ranging from 0.0075-100 μM. Control wells received equal volumes of DSMO, without compound. Following drugging, the cells were incubated for 72 hours at 37° C. in a humidified incubator. After this exposure, 100 μL of a 1:1 mixture of sterile water and CellTiter-Glo® reagent (Promega) was added to each well. The plates were then incubated for 60 minutes at room temperature, followed by recording the luminescence value of each well using a luminometer as a measure of cell proliferation.

[1] = tested on: Jeko-1 Bortezomib resistant cells; assay type: cell-based; conditions: Homo sapiens, Mantle Cell Lymphoma, 72 hours
Procedure: as §2, §3

SU-DHL-4 cells = assay type: cell-based; conditions: Homo sapiens; SU-DHL-4, Diffuse Large B-Cell Lymphoma, 72 hours; read-out: Mean IC50
Procedure: as §2, §3

SU-DHL-6 cells = assay type: cell-based; conditions: Homo sapiens; SU-DHL-6, Diffuse Large B-Cell Lymphoma, 72 hours; read-out: Mean IC50
Procedure: as §2, §3

N87 cells = assay type: cell-based; conditions: Homo sapiens; N87, Gastric, 72 hours; read-out: Mean IC50
Procedure: as §2, §3

RXF-393 cells = assay type: cell-based; conditions: Homo sapiens; RXF-393, Renal, 72 hours; read-out: Mean IC50
Procedure: as §2, §3

[2] = tested on: Jeko-1 Lenalidomide resistant cells; assay type: cell-based; conditions: Homo sapiens, Mantle Cell Lymphoma, 72 hours
Procedure: as §2, §3

RPMI-8226 cells = assay type: cell-based, Human; conditions: RPMI-8226, HMM
Method in brief: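 After 24 h plating, cells exposed to compound in DMSO over 0.0075–100 µM for 72 h at 37 °C. Viability read by CellTiter-Glo luminescence after 60 min at room temperature, relative to DMSO controls.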

[3] = Homo sapiens, Squamous, 72 hours

COc1ccc2c(c1)=NC1=C(CCc3ccc(O)c(OC)c3)NCCC=21 [518F014]
IC50 (BxPC-3 cells; Homo sapiens, 72 hours): 98.7 µM
IC50 (ASPC-1 cells; Homo sapiens, ASPC1, 72 hours): 87.1 µM
IC50 (KMS-11 cells): > 100 µM
IC50 (KMS-27 cells): 91.2 µM
IC50 (H1650 (EGFR mut) cells; Homo sapiens, NCI-H1650, Non Small Cell Lung, 72 hours): > 100 µM
IC50 (L363 cells; L-363, L363, Human Myeloma, 72 hours): 99.1 µM
IC50 (MIA PaCa-2 cells; Homo sapiens, 72 hours): > 100 µM
IC50 (FaDu cells; [3]): > 100 µM
IC50 (KMM-1 cells; KMM-1, Human Myeloma, 72 hours): 82.2 µM
IC50 (A498 cells; Homo sapiens, A498, Renal, 72 hours): > 100 µM
IC50 (MM.1s cells): > 100 µM
IC50 (KHM-1B cells): 94.1 µM
IC50 (H1975 (EGFR mut) cells; Homo sapiens, NCI-H1975, Non Small Cell Lung, 72 hours): 79.7 µM
IC50 (H929 cells): 80.3 µM
IC50 (MOLP-8 cells; MOLP-8, Human Myeloma, 72 hours): 86.4 µM
IC50 (AN3CA cells; Homo sapiens, AN3-CA, 72 hours): 88.1 µM
IC50 (HCC70 cells; Homo sapiens, HCC70, Triple Negative Breast, 72 hours): > 100 µM
IC50 (KMS-34 cells; KMS-34, Human Myeloma, 72 hours): > 100 µM
IC50 (JIM1 cells; JIM1, Human Myeloma, 72 hours): 85.2 µM
IC50 (SiHA cells; [3]): > 100 µM
IC50 (HEC-1a cells; Homo sapiens, 72 hours): > 100 µM
IC50 (DOHH-2 cells; Homo sapiens, DOHH-2, Diffuse Large B-Cell Lymphoma, 72 hours): > 100 µM
IC50 (A2780 cells; Homo sapiens, 72 hours): 70.9 µM
IC50 (A2780CP cells; Homo sapiens, A2780C/P, 72 hours): > 100 µM
IC50 (OCI-LY3 cells; Homo sapiens, OCI-LY3, Diffuse Large B-Cell Lymphoma, 72 hours): > 100 µM
IC50 (MDA-MB-468 cells; Homo sapiens, MDA-MB-468, Triple Negative Breast, 72 hours): > 100 µM
IC50 (MDA-MB-231 cells; Homo sapiens, MDA-MB-231, Triple Negative Breast, 72 hours): 78.2 µM
IC50 (Jeko-1 Parental cells): 89.4 µM
IC50 [1]: 87.6 µM
IC50 (SU-DHL-4 cells): 91.3 µM
IC50 (SU-DHL-6 cells): 50 µM
IC50 (N87 cells): 40.6 µM
IC50 (RXF-393 cells): 96.5 µM
IC50 [2]: 79.4 µM

COc1ccc2c3c([nH]c2c1)C(CC(CC1=NCCc2c1[nH]c1cc(OC)ccc21)C1CCCCC1)=NCC3 [compound 30]
IC50 (RPMI-8226 cells): 4.3 µM
IC50 (BxPC-3 cells): 7.73 µM
IC50 (ASPC-1 cells): 11 µM
IC50 (H1650 (EGFR mut) cells; NSCLC): 16.6 µM
IC50 (L363 cells; L363, PCL/MM): 5.57 µM
IC50 (MIA PaCa-2 cells): 5.47 µM
IC50 (FaDu cells; H&N - SC): 6.82 µM
IC50 (KMM-1 cells; KMM-1, HMCL-A): 5.81 µM
IC50 (A498 cells; A498, RCC): 17.1 µM
IC50 (H1975 (EGFR mut) cells; NSCLC): 11.4 µM
IC50 (MOLP-8 cells; MOLP-8, MM IgD): 2.7 µM
IC50 (AN3CA cells): 5.01 µM
IC50 (HCC70 cells; HCC70, TNBC): 18.5 µM
IC50 (KMS-34 cells; KMS-34, HMCL-B): 4.81 µM
IC50 (JIM1 cells; JIM1, HMCL): 7.07 µM
IC50 (SiHA cells; Cervical - SC): 17.8 µM
IC50 (HEC-1a cells): 9.91 µM
IC50 (DOHH-2 cells; DoHH-2, GCB-DLBCL): 5.36 µM
IC50 (A2780 cells): 6.45 µM
IC50 (A2780CP cells): 8.55 µM
IC50 (OCI-LY3 cells; OCI-LY3, ABC-DLBCL): 7.28 µM
IC50 (MDA-MB-468 cells; MDA-MB-468, TNBC): 7.46 µM
IC50 (MDA-MB-231 cells; MDA-MB-231, TNBC): 11.1 µM
